The text below walks through data of patent US10428080B2, “TBK/IKK inhibitor compounds and uses thereof” (Merck Patent GmbH, priority 2015, dated 2019).

One experiment concerns the target T1, TBK1 (Homo sapiens, UniProt Q9UHD2).
T1 sequence (Q9UHD2 1-729): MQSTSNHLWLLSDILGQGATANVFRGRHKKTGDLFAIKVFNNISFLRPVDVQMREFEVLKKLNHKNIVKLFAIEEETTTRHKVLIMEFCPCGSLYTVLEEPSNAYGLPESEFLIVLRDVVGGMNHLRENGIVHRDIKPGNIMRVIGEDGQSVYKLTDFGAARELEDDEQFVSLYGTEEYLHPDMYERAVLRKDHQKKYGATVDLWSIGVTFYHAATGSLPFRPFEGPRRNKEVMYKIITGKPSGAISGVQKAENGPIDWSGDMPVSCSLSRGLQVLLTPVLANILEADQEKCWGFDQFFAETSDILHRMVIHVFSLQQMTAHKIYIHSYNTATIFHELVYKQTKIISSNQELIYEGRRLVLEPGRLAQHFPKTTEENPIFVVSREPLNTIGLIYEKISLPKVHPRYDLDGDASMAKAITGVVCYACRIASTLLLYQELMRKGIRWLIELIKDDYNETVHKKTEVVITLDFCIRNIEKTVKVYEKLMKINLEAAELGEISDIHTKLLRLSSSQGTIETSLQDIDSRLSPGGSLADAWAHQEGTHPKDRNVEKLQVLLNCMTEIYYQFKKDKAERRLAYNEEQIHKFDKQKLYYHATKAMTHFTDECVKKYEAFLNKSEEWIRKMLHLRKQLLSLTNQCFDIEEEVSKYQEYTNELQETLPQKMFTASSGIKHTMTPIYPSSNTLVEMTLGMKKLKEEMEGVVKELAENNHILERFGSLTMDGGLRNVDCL
Briefly: TBK Biochemical Assay. Particulars: read-out: TBK1 IC50. The procedure, abridged: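 TBK1 enzyme and substrate incubated with compounds (10-point 1:4 dilution, top 30 uM final, 1% DMSO) for 90 min at 25° C, then stopped. Substrate/product peaks read by microfluidic mobility-shift (Caliper LabChip); 10 uM staurosporine as full-inhibition control.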

Experiment [1] has as its system phosphorylation of the IRF-3 protein in MDA-MB-468 cells. Briefly: pIRF3 immunocytochemistry cell based assay. The following applies: Homo sapiens; MDA-MB-468 cells, Poly(I:C) stimulation; read-out: pIRF3 IC50. The procedure, abridged:
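MDA-MB-468 cells got compounds (10-point, 3-fold from 10 uM) for 1 h at 37 °C, then 10 ug/ml Poly(I:C) for 2 h. Fixed, permeabilized cells were immunostained for pIRF3 with AlexaFluor488 and counterstained with PI. % phosphorylation was read by laser scanning cytometry, and IC50 curves were fitted.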

The target in another experiment is T2, IKKε (Homo sapiens, UniProt Q14164).
T2 sequence (Q14164 1-716): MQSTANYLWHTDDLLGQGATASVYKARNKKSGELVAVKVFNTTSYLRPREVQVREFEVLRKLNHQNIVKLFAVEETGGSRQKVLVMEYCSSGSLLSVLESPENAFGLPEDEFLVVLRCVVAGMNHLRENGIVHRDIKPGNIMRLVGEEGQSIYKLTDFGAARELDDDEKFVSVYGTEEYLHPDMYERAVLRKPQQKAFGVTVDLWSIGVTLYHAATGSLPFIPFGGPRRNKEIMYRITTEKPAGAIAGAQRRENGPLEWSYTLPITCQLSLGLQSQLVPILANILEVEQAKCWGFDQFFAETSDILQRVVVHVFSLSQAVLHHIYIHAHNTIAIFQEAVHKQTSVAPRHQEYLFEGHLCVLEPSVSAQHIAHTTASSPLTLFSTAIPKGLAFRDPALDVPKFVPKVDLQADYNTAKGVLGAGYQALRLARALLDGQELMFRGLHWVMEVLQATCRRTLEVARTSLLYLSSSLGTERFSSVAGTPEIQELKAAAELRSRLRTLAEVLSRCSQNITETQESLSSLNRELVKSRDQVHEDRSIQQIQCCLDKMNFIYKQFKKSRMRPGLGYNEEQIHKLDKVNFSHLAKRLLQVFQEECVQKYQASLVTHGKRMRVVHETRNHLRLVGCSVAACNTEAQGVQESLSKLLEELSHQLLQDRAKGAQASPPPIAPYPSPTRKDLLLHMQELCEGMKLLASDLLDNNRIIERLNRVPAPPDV
Briefly: IKKe Biochemical Assay. Particulars: read-out: IKKε IC50. In a few lines: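 Recombinant IKKε and substrate were incubated with compound (10-point 1:4 series, top 30 uM final, 1% DMSO) for 90 min at 25° C, then stopped. Substrate-to-product conversion was read by LabChip microfluidic mobility shift; 10 uM staurosporine served as full-inhibition wells.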

Molecules are shown by their SMILES.

Regarding `COc1cc(C(=O)N(C)C)cnc1-c1cc2nccc(-c3ccc(N4CCC(F)C4)c(C#N)n3)c2o1` (stereo not drawn) [Compound 488, 2-{7-[6-Cyano-6-5-(3-fluoro-pyrrolidin-1-yl)-pyridin-3-yl]-furo[3,2-b]pyridin-2-yl}-5-methoxy-N,N-dimethyl-nicotinamide], the IC50 at TBK1 was less than 100 nM; in experiment [1] it was 100 to 1000 nM; on IKKε it was less than 100 nM.

As for `COc1cc(C(=O)N(C)C)cnc1-c1cc2nccc(-c3cnc(N4CCC(F)C4)c(C#N)c3)c2o1` (stereo not drawn) [Compound 489], the IC50 at TBK1 is less than 100 nM; in experiment [1], 100 to 1000 nM; on IKKε it was less than 100 nM.

As for `COc1cc(C(=O)N2CCC(O)C2)ccc1-c1cc2nccc(-c3ccc(OC4CCOCC4)c(C#N)c3)c2o1` (stereo not drawn) [Compound 492, 5-{2-[4-(3-Hydroxy-pyrrolidine-1-carbonyl)-2-methoxy-phenyl]-furo[3,2-b]pyridin-7-yl}-2-(tetrahydro-pyran-4-yloxy)-benzonitrile], the IC50 was less than 100 nM on TBK1, 100 to 1000 nM in experiment [1] and less than 100 nM on IKKε.

Regarding `COc1cc(C(=O)N[C@H]2CCN(C)C2)ccc1-c1cc2nccc(-c3ccc(OC4CCOCC4)c(C#N)c3)c2o1` [Compound 493, 5-{2-[4-(N—((S)-methyl-pyrrolidin-3-yl)-1-carbonyl)-2-methoxy-phenyl]-furo[3,2-b]pyridin-7-yl}-2-(tetrahydro-pyran-4-yloxy)-benzonitrile], the IC50 at TBK1 is less than 100 nM; in experiment [1] it was 100 to 1000 nM; on IKKε, less than 100 nM.

Turning to `COc1cc(C(=O)N[C@@H]2CCN(C)C2)ccc1-c1cc2nccc(-c3ccc(OC4CCOCC4)c(C#N)c3)c2o1` [Compound 494, 5-{2-[4-(N—((R)-methyl-pyrrolidin-3-yl)-1-carbonyl)-2-methoxy-phenyl]-furo[3,2-b]pyridin-7-yl}-2-(tetrahydro-pyran-4-yloxy)-benzonitrile], the IC50 at TBK1 is less than 100 nM; in experiment [1] it was 100 to 1000 nM; at IKKε, less than 100 nM.

As for `COc1cc(C(=O)N2CC(O)C2)ccc1-c1cc2nccc(-c3ccc(N4CC[C@@H](F)C4)c(C#N)c3)c2o1` [Compound 497, 2-((R)-3-Fluoro-pyrrolidin-1-yl)-5-{2-[4-(3-hydroxy-azetidine-1-carbonyl)-2-methoxy-phenyl]-furo[3,2-b]pyridin-7-yl}-benzonitrile], the figures for the IC50 (on TBK1; in experiment [1]; on IKKε) were less than 100 nM, 100 to 1000 nM and less than 100 nM, respectively.

Regarding `COc1cc(C(=O)NC2C3COCC32)ccc1-c1cc2nccc(-c3ccc(N4CC[C@@H](F)C4)c(C#N)c3)c2o1` (stereo partly drawn) [Compound 498], the figures for the IC50 (at TBK1; in experiment [1]; on IKKε) were 100 to 1000 nM, 100 to 1000 nM and less than 100 nM, respectively.

Consider `COc1cc(C(=O)NCC(C)(C)N(C)C)ccc1-c1cc2nccc(-c3ccc(NC4CCOCC4)c(C#N)c3)c2o1` [Compound 499, 4-{7-[3-Cyano-4-(tetrahydro-pyran-4-ylamino)-phenyl]-furo[3,2-b]pyridin-2-yl}-N-(2-dimethylamino-2-methyl-propyl)-3-methoxy-benzamide], for which the IC50 on TBK1 was less than 100 nM; in experiment [1], 100 to 1000 nM; at IKKε, less than 100 nM.

`COc1cc(C(=O)NCC(C)(C)N(C)C)ccc1-c1cc2nccc(-c3ccc(OC4CCOCC4)c(C#N)c3)c2o1` [Compound 500, 4-{7-[3-Cyano-4-(tetrahydro-pyran-4-yloxy)-phenyl]-furo[3,2-b]pyridin-2-yl}-N-(2-dimethylamino-2-methyl-propyl)-3-methoxy-benzamide]: the values for the IC50 (on TBK1; in experiment [1]; on IKKε) were less than 100 nM, 100 to 1000 nM and less than 100 nM, respectively.

Take `COc1cc(C(=O)N2CC3CN(C)CC3C2)ccc1-c1cc2nccc(-c3ccc(N4CC[C@@H](F)C4)c(C#N)c3)c2o1` (stereo partly drawn) [Compound 501]: the IC50 was less than 100 nM at TBK1, 100 to 1000 nM in experiment [1] and less than 100 nM at IKKε.

In the case of `COc1cc(C(=O)NC(C)(C)CN(C)C)ccc1-c1cc2nccc(-c3ccc(NC4C5COCC54)c(C#N)c3)c2o1` (stereo not drawn) [Compound 502, N-(2-dimethylamino-1,1-dimethyl-ethyl)-4-{7-[3-cyano-4-(3-oxa-bicyclo[3.1.0]hex-6-ylamino)-phenyl]-furo[3,2-b]pyridin-2-yl}-3-methoxy-benzamide], the IC50 at TBK1 was less than 100 nM; in experiment [1], 100 to 1000 nM; on IKKε, less than 100 nM.

Regarding `COc1cc(C(=O)N2CC3CCC2CN3C)ccc1-c1cc2nccc(-c3ccc(OC4CCOCC4)c(C#N)c3)c2o1` (stereo not drawn) [Compound 503], the IC50 (on TBK1; in experiment [1]; on IKKε) was less than 100 nM throughout.

For the compound `COc1cc(C(=O)N2CC3COCC3C2)ccc1-c1cc2nccc(-c3ccc(OC4CCOCC4)c(C#N)c3)c2o1` (stereo not drawn) [Compound 504], the half-inhibitory concentration (IC50) at TBK1 is less than 100 nM; in experiment [1] it was 100 to 1000 nM; at IKKε, less than 100 nM.

As for `COc1cc(C(=O)NC(C)(C)CCN(C)C)ccc1-c1cc2nccc(-c3ccc(OC4CCOCC4)c(C#N)c3)c2o1` [Compound 505, 4-{7-[3-Cyano-4-(tetrahydro-pyran-4-yloxy)-phenyl]-furo[3,2-b]pyridin-2-yl}-N-(3-dimethylamino-1,1-dimethyl-propyl)-3-methoxy-benzamide], the IC50 at TBK1 is less than 100 nM; in experiment [1] it was 100 to 1000 nM; at IKKε it was less than 100 nM.

On to `COc1cc(C(=O)NCC(C)(C)CN(C)C)ccc1-c1cc2nccc(-c3ccc(OC4CCOCC4)c(C#N)c3)c2o1` [Compound 506, 4-{7-[3-Cyano-4-(tetrahydro-pyran-4-yloxy)-phenyl]-furo[3,2-b]pyridin-2-yl}-N-(3-dimethylamino-2,2-dimethyl-propyl)-3-methoxy-benzamide], for which the IC50 on TBK1 was less than 100 nM; in experiment [1], 100 to 1000 nM; at IKKε it was less than 100 nM.

Regarding `COc1cc(C(=O)N2C[C@@H]3C[C@H]2CN3C)ccc1-c1cc2nccc(-c3ccc(OC4CCOCC4)c(C#N)c3)c2o1` [Compound 508], the IC50 (on TBK1; in experiment [1]; at IKKε) was less than 100 nM in each case.

For the compound `COc1cc(C(=O)N2C3CCCC2CC3)ccc1-c1cc2nccc(-c3ccc(OC4CCOCC4)c(C#N)c3)c2o1` [Compound 509], the values for the IC50 (at TBK1; in experiment [1]; on IKKε) were less than 100 nM, 100 to 1000 nM and less than 100 nM, respectively.

Regarding `COc1cc(C(=O)N2CC3CCC2CN3C)ccc1-c1cc2nccc(-c3ccc(NC4CCOCC4)c(C#N)c3)c2o1` (stereo not drawn) [Compound 510], the IC50 (at TBK1; in experiment [1]; on IKKε) was less than 100 nM in each case.

As to `COc1cc(C(=O)N2CC3COCC3C2)ccc1-c1cc2nccc(-c3ccc(NC4CCOCC4)c(C#N)c3)c2o1` (stereo not drawn) [Compound 513], the IC50 (on TBK1; in experiment [1]; on IKKε) was less than 100 nM in each case.

`COc1cc(C(=O)NC(C)(C)CCN(C)C)ccc1-c1cc2nccc(-c3ccc(NC4CCOCC4)c(C#N)c3)c2o1` [Compound 514, 4-{7-[3-Cyano-4-(tetrahydro-pyran-4-ylamino)-phenyl]-furo[3,2-b]pyridin-2-yl}-N-(3-dimethylamino-1,1-dimethyl-propyl)-3-methoxy-benzamide]: the IC50 (on TBK1; in experiment [1]; at IKKε) was less than 100 nM in each case.
